From patent publication US8481546B2, “CGRP receptor antagonist” (Bristol-Myers Squibb Company, priority 2010, dated 2013)
Read-outs that look alike come from different tables or passages of the source.

Assays:
[1] = One-week comparative intranasal irritation study in rats: toxicokinetics; details: male, rat, in vivo; for Cmax / Tmax / AUC(0-t) / half-life: inhaled or intranasal; for concentration at 24 h: other: intranasal instillation
Experimental: This study was conducted to compare potential nasal irritation of Compound I to Compound III when given intranasally to male rats for 1 week. Male rats (10/group) were instilled intranasally with Compound I or Compound III solutions ([…] in 225 mM succinic acid, 0.02% benzalkonium chloride, 1.25% anhydrous dextrose, pH 5.8-6.2) once daily at a dose volume of 100 μL/nostril. Using this dosing paradigm, fixed doses of 5, 15 or 35 mg of test article were delivered daily. As a consequence, dosages normalized to body weight decreased with time as the rats grew. One control group was given succinate vehicle and a sham control group was given saline by intranasal instillation. Parameters evaluated included clinical observations, body weight, food consumption, toxicokinetics, and histological evaluation of nasal tissues.

[2] = system: CGRP-induced dilation of ex vivo human intracranial arteries; experiment: Schild analysis: inhibition of CGRP concentration-response curve in ex vivo human intracranial artery
Experimental: To assess functional antagonism against a range of CGRP concentrations, Compound I is pre-incubated with individual artery rings in the tissue bath and then a CGRP concentration-response curve is generated to achieve complete dilation (using multiple agonist and multiple antagonist doses). Higher concentrations of antagonist produce a ‘right-shift’ in the CGRP concentration-response curve, requiring greater concentrations of agonist to overcome the presence of antagonist and achieve full dilation. In short, wire mounted artery rings are pre-incubated with antagonist, then contracted with KCl (to mimic endogenous tone), and followed by addition of increasing concentrations of CGRP to achieve full relaxation.
Each wire mounted artery ring is pre-incubated for 30 min with a single concentration (0.1-30 nM) of the antagonist Compound I, then contracted with 10 mM KCl (to mimic endogenous tone), followed by addition of increasing concentrations of CGRP to achieve full relaxation. The KCl contraction is allowed to stabilize, such that total antagonist pretreatment time is approximately 45 min prior to application of CGRP.

[3] = Intravenous exposure in rats (reference for bioavailability); details: rat, in vivo, intravenous administration of 1 mg/kg, read-out: AUC0-24 h
[4] = Pharmacokinetics in the rabbit after IV and IN administration; type: in vivo, New Zealand White rabbits
Experimental: The feasibility of nasal delivery was assessed in the IN rabbit model by comparing the plasma concentration-time profiles and pharmacokinetic parameters (Cmax, Tmax, AUC and bioavailability) for nasally delivered Compound I to that delivered by the IV route. The dosing solution concentration and delivery volume are included in the data tables for each study. Vehicle compositions are described in the footnotes below the table.
Groups of three male New Zealand White rabbits, ranging in weight from 3-3.5 kg, received a single dose of drug in one of the following treatments: 0.5 mg/kg IV bolus injection over 30 seconds, or 0.3-3 mg/kg IN administered with a syringe microsprayer. Prior to IN dosing, rabbits were lightly sedated to effect with the inhalant anesthetic, Sevoflurane. The rabbits regained consciousness in 2-5 min. Serial blood samples were collected in heparin-containing vacutainers at predose, 2, 5, 10, 15, 30 min and 1, 2, 4, 6, and 24 hours post-dose. Blood samples were immediately centrifuged at 4° C. and the separated plasma stored at −80° C. until further analysis by the LC/MS/MS assay.

[5] = molecular target: T1, CGRP receptor, SK-N-MC cell membrane preparation (Homo sapiens, UniProt O60894+Q16602); experiment: Saturation binding of [125I]CGRP with or without Compound I
T1 construct: endogenous in cells; host or cells: SK-N-MC human neuroblastoma cells (membrane homogenate or attached whole cells)
Experimental: The nature of the interaction between the endogenous CGRP peptide and Compound I is studied in detail using saturation binding experiments. Briefly, the binding of [^125I]CGRP to the SK-N-MC cell membrane preparation is measured with increasing concentration of [^125I]CGRP without (control condition) or in the presence of (test conditions) one of the two concentrations (30 pM and 100 pM) of Compound I. Saturation data are analyzed with hyperbolic equations using Kell software (Biosoft, Cambridge, UK) to estimate dissociation constant (Kd) and the maximum number of binding sites (Bmax). The impact of the addition of Compound I to the binding parameters (Kd, Bmax) of [^125I]CGRP is measured and compared.

[6] = 5 mg, intranasal 5 mg (0.357 mg/cm^2) once daily, Day 0
[7] = 5 mg, intranasal 5 mg (0.357 mg/cm^2) once daily, Day 6
[8] = 15 mg, intranasal 15 mg (1.07 mg/cm^2) once daily, Day 0
[9] = 15 mg, intranasal 15 mg (1.07 mg/cm^2) once daily, Day 6
[10] = 35 mg, intranasal 35 mg (2.50 mg/cm^2) once daily, Day 0
[11] = 35 mg, intranasal 35 mg (2.50 mg/cm^2) once daily, Day 6
[12] = male, New Zealand White, plasma, IV 0.5 mg/kg
[13] = in the presence of 30 pM Compound I
[14] = in the presence of 100 pM Compound I

T1 sequence (Q16602 23-461): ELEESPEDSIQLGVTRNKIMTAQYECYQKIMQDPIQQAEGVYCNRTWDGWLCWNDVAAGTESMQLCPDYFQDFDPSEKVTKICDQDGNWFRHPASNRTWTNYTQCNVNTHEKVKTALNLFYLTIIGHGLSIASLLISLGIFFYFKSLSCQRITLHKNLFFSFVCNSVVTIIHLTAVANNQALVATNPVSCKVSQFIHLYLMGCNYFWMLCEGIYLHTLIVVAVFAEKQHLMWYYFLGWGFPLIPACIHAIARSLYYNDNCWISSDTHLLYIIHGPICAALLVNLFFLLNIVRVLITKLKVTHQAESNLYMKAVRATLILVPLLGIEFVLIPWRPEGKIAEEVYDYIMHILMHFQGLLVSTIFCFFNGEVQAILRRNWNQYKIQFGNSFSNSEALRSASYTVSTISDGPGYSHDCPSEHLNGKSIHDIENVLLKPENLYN
T1 sequence (O60894 27-148): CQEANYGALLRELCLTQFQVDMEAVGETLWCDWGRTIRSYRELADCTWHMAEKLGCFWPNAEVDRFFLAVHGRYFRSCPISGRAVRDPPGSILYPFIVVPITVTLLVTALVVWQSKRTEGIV

## Cc1cc(C[C@@H](NC(=O)N2CCC(c3cc4ccccc4[nH]c3=O)CC2)C(=O)N2CCN(C3CCN(C)CC3)CC2)cc2cn[nH]c12 [Compound I, (R)—N-(3-(7-methyl-1H-indazol-5-yl)-1-(4-(1-methylpiperidin-4-yl)piperazin-1-yl)-1-oxopropan-2-yl)-4-(2-oxo-1,2-dihydroquinolin-3-yl)piperidine-1-carboxamide]
[1]; [6]
  Cmax: 330 nM
  Tmax: 0.5 h
[1]; 5 mg, intranasal 5 mg (0.357 mg/cm^2) once daily, Day 0, read-out: Composite AUC0-24 h
  AUC(0-t): 1.6 µM·h
[1]; 5 mg, intranasal 5 mg (0.357 mg/cm^2) once daily, Day 0, read-out: Mean T1/2 (converted)
  half-life: 7.1 h
[1]; [7]
  Cmax: 660 nM
  Tmax: 1 h
[1]; 5 mg, intranasal 5 mg (0.357 mg/cm^2) once daily, Day 6, read-out: Composite AUC0-24 h
  AUC(0-t): 2.6 µM·h
[1]; 5 mg, intranasal 5 mg (0.357 mg/cm^2) once daily, Day 6, read-out: Mean T1/2 (converted)
  half-life: 5.6 h
[1]; [8]
  Cmax: 2200 nM
  Tmax: 1 h
[1]; 15 mg, intranasal 15 mg (1.07 mg/cm^2) once daily, Day 0, read-out: Composite AUC0-24 h
  AUC(0-t): 4.6 µM·h
[1]; 15 mg, intranasal 15 mg (1.07 mg/cm^2) once daily, Day 0, read-out: Mean T1/2 (converted)
  half-life: 5.1 h
[1]; [9]
  Cmax: 830 nM
  Tmax: 0.5 h
[1]; 15 mg, intranasal 15 mg (1.07 mg/cm^2) once daily, Day 6, read-out: Composite AUC0-24 h
  AUC(0-t): 5.2 µM·h
[1]; 15 mg, intranasal 15 mg (1.07 mg/cm^2) once daily, Day 6, read-out: Mean T1/2 (converted)
  half-life: 6.7 h
[1]; [10]
  Cmax: 1500 nM
  Tmax: 2 h
[1]; 35 mg, intranasal 35 mg (2.50 mg/cm^2) once daily, Day 0, read-out: Composite AUC0-24 h
  AUC(0-t): 7.9 µM·h
[1]; [11]
  Cmax: 1200 nM
  Tmax: 1 h
[1]; 35 mg, intranasal 35 mg (2.50 mg/cm^2) once daily, Day 6, read-out: Composite AUC0-24 h
  AUC(0-t): 5.4 µM·h
[1]; 35 mg, intranasal 35 mg (2.50 mg/cm^2) once daily, Day 6, read-out: Mean T1/2 (converted)
  half-life: 6 h
[1]; 5 mg, intranasal 5 mg (0.357 mg/cm^2) once daily, Day 0, read-out: Mean C24 h
  concentration at 24 h: 22 nM
[1]; 5 mg, intranasal 5 mg (0.357 mg/cm^2) once daily, Day 6, read-out: Mean C24 h
  concentration at 24 h: 15 nM
[1]; 15 mg, intranasal 15 mg (1.07 mg/cm^2) once daily, Day 0, read-out: Mean C24 h
  concentration at 24 h: 17 nM
[1]; 15 mg, intranasal 15 mg (1.07 mg/cm^2) once daily, Day 6, read-out: Mean C24 h
  concentration at 24 h: 59 nM
[1]; 35 mg, intranasal 35 mg (2.50 mg/cm^2) once daily, Day 0, read-out: Mean C24 h
  concentration at 24 h: 120 nM
[1]; 35 mg, intranasal 35 mg (2.50 mg/cm^2) once daily, Day 6, read-out: Mean C24 h
  concentration at 24 h: 36 nM
[2]
  Kb: 0.091 nM
[3]
  AUC(0-t): 7.7 µM·h
[4]; IN
  time drug was detected in plasma post-dose: at least 6 h
[4]; IN, high dose
  time drug was detected in plasma post-dose: up to 24 hr
[4]; IN, measured within 5 min
  Plasma levels: > 10 nM
[4]; [12]
  MRT: 0.38 ± 0.15 h
  clearance: 7.9 ± 3 mL/min/kg
  half-life: 1.3 ± 0.26 h
[4]; male, New Zealand White, plasma, IV 0.5 mg/kg, n = 3, Mean ± SD
  AUC: 1.8 ± 0.58 µM·h
[4]; male, New Zealand White, plasma, IV 0.5 mg/kg, read-out: Vss
  Vd: 0.16 ± 0.01 L/kg
[4]; male, New Zealand White, plasma, inhaled or intranasal, 0.3 mg/kg, IN low dose 0.3 mg/kg (10 mg/ml), n = 3, Mean ± SD
  Cmax: 120 nM
[4]; male, New Zealand White, plasma, inhaled or intranasal, 0.3 mg/kg, IN low dose 0.3 mg/kg, read-out: Bioavailability (F %)
  bioavailability: 12.5 ± 6.56%
[4]; male, New Zealand White, plasma, inhaled or intranasal, 1 mg/kg, IN mid-dose 1.0 mg/kg (30 mg/ml), n = 3, Mean ± SD
  Cmax: 550 ± 260 nM
[4]; male, New Zealand White, plasma, inhaled or intranasal, 1 mg/kg, IN mid-dose 1.0 mg/kg, read-out: Bioavailability (F %)
  bioavailability: 18.8 ± 8.96%
[4]; male, New Zealand White, plasma, inhaled or intranasal, 3 mg/kg, IN high dose 3.0 mg/kg (100 mg/ml), n = 3, Mean ± SD
  Cmax: 2030 ± 1000 nM
[4]; male, New Zealand White, plasma, inhaled or intranasal, 3 mg/kg, IN high dose 3.0 mg/kg, read-out: Bioavailability (F %)
  bioavailability: 30.2 ± 10.8%
[4]; male, New Zealand White, plasma, inhaled or intranasal, 3 mg/kg, IN, range over 0.3, 1, and 3 mg/kg
  Cmax: 120 to 2000 nM
[4]; male, New Zealand White, plasma, inhaled or intranasal, 3 mg/kg, IN, range over 0.3, 1, and 3 mg/kg, read-out: absolute bioavailability
  bioavailability: 13 to 30%
[4]; male, New Zealand White, plasma, inhaled or intranasal, IN high dose 3.0 mg/kg (100 mg/ml), n = 3, Mean ± SD
  AUC: 3.27 ± 1.17 µM·h
[4]; male, New Zealand White, plasma, inhaled or intranasal, IN high dose 3.0 mg/kg, read-out: Tmax
  Tmax: 0.33 h
[4]; male, New Zealand White, plasma, inhaled or intranasal, IN low dose 0.3 mg/kg (10 mg/ml), n = 3, Mean ± SD
  AUC: 0.14 ± 0.07 µM·h
[4]; male, New Zealand White, plasma, inhaled or intranasal, IN low dose 0.3 mg/kg, read-out: Tmax
  Tmax: 0.25 h
[4]; male, New Zealand White, plasma, inhaled or intranasal, IN mid-dose 1.0 mg/kg (30 mg/ml), n = 3, Mean ± SD
  AUC: 0.69 ± 0.33 µM·h
[4]; male, New Zealand White, plasma, inhaled or intranasal, IN mid-dose 1.0 mg/kg, read-out: Tmax
  Tmax: 0.25 h
[4]; male, New Zealand White, plasma, inhaled or intranasal, IN, all doses studied, read-out: time to reach peak concentrations (Tmax)
  Tmax: 0.2 to 0.3 h
[4]; male, New Zealand White, plasma, iv, 0.5 mg/kg, IV 0.5 mg/kg, n = 3, Mean ± SD
  Cmax: 13700 ± 1800 nM
[5]; [13]
  Bmax of [125I]CGRP: 112.1 ± 20.6 fmol/mg protein
  Kd of [125I]CGRP: 0.058 ± 0.0196 nM
[5]; [14]
  Bmax of [125I]CGRP: 146.8 ± 6.4 fmol/mg protein
  Kd of [125I]CGRP: 0.1297 ± 0.0319 nM
